In ChEMBL document CHEMBL3779884, “Anti-Staphylococcal Biofilm Effects of Human Cathelicidin Peptides” (ACS Med Chem Lett, 2016):
≈ marks a conversion by molar mass, not a printed value. Calls of active or inactive are those of the source. The calls are words filed in the database; no cut-off is given here. Where a SMILES comes first, the peptide text is derived from it. [ ]: non-standard residue; d: D form. Bip = N[C@@H](Cc1ccc(-c2ccccc2)cc1)C(=O)O

Key:
[1] = tested on: Staphylococcus aureus; assay: Antibiofilm activity against Staphylococcus aureus clinical isolate USA400 assessed as 24 hr preformed biofilm disruption at 3.1 to 25 uM incubated for 24 hrs by XTT assay; assay type: functional, organism-based
[2] = tested on: Staphylococcus aureus; assay: Antibiofilm activity against Staphylococcus aureus clinical isolate UAMS-1 assessed as 24 hr preformed biofilm disruption at 3.1 to 25 uM incubated for 24 hrs by XTT assay; assay type: functional, organism-based
[3] = tested on: Staphylococcus aureus; assay: Antibacterial activity against Staphylococcus aureus clinical isolate UAMS-1 incubated for 20 hrs by microplate reader analysis; assay type: functional; settings: isolate UAMS-1, 20 h
[4] = tested on: Staphylococcus aureus; assay: Antibiofilm activity against Staphylococcus aureus clinical isolate USA300 assessed as 24 hr preformed biofilm disruption at 3.1 to 25 uM incubated for 24 hrs by XTT assay; assay type: functional, organism-based
[5] = tested on: Staphylococcus aureus; assay: Antibiofilm activity against Staphylococcus aureus clinical isolate USA300 assessed as disruption of 72 hr-preformed biofilm at 6.2 uM incubated for 24 hrs by XTT assay in presence of 1.6 uM vancomycin; assay type: functional, organism-based
[6] = tested on: Staphylococcus aureus; assay: Inhibition of biofilm formation in Staphylococcus aureus clinical isolate USA300 at 3.1 to 25 uM incubated for 24 hrs by XTT/PMS assay; assay type: functional, organism-based
[7] = tested on: Staphylococcus aureus; assay: Antibiofilm activity against Staphylococcus aureus clinical isolate USA200 assessed as 24 hr preformed biofilm disruption at 3.1 to 25 uM incubated for 24 hrs by XTT assay; assay type: functional, organism-based
[8] = tested on: Staphylococcus aureus; assay: Antibacterial activity against Staphylococcus aureus clinical isolate USA400 incubated for 20 hrs by microplate reader analysis; assay type: functional; settings: isolate USA400, 20 h
[9] = tested on: Staphylococcus aureus; assay: Antibacterial activity against Staphylococcus aureus clinical isolate USA300 incubated for 20 hrs by microplate reader analysis; assay type: functional; settings: isolate USA300, 20 h
[10] = tested on: Staphylococcus aureus; assay: Antibiofilm activity against Staphylococcus aureus clinical isolate USA300 assessed as dead cells at 3.1 to 25 uM incubated for 24 hrs by SYTO 9/propidium iodide staining based confocal laser scanning microscopy; assay type: functional, organism-based
[11] = Hemolytic activity against human RBC after 1 hr by microplate reader analysis; assay type: ADME, cell-based, Erythrocyte; settings: red blood cells
[12] = tested on: Staphylococcus aureus; assay: Antibacterial activity against Staphylococcus aureus clinical isolate USA200 incubated for 20 hrs by microplate reader analysis; assay type: functional; settings: isolate USA200, 20 h
[13] = tested on: Staphylococcus aureus; assay: Antibacterial activity against Staphylococcus aureus Newman incubated for 20 hrs by microplate reader analysis; assay type: functional
[14] = tested on: HaCaT; assay: Cytotoxic activity against human HaCaT cells assessed as reduction in cell viability at 20 to 100 uM incubated for 1 hr by MTS assay; assay type: cell-based
[15] = tested on: Staphylococcus aureus; assay: Antibiofilm activity against Staphylococcus aureus clinical isolate USA300 assessed as disruption of 72 hr-preformed biofilm at 6.2 uM incubated for 24 hrs by XTT assay in presence of 1.6 uM daptomycin; assay type: functional, organism-based
[16] = tested on: Staphylococcus aureus; assay: Antibiofilm activity against Staphylococcus aureus Mu50 assessed as 24 hr preformed biofilm disruption at 3.1 to 25 uM incubated for 24 hrs by XTT assay; assay type: functional, organism-based
[17] = tested on: Staphylococcus aureus; assay: Antibiofilm activity against Staphylococcus aureus clinical isolate USA300 assessed as inhibition of bacterial attachment at 25 uM incubated for 1 hr by XTT/PMS assay; assay type: functional, organism-based
[18] = tested on: Staphylococcus aureus; assay: Antibiofilm activity against Staphylococcus aureus Newman assessed as 24 hr preformed biofilm disruption at 3.1 to 25 uM incubated for 24 hrs by XTT assay; assay type: functional, organism-based
[19] = tested on: Staphylococcus aureus; assay: Antibacterial activity against Staphylococcus aureus Mu50 incubated for 20 hrs by microplate reader analysis; assay type: functional; settings: Mu50, 20 h
[20] = tested on: Staphylococcus aureus; assay: Antibiofilm activity against Staphylococcus aureus Mu50 assessed as 24 hr preformed biofilm disruption at 12.5 to 25 uM incubated for 24 hrs by XTT assay; assay type: functional, organism-based
[21] = tested on: Staphylococcus aureus; assay: Antibiofilm activity against Staphylococcus aureus clinical isolate USA400 assessed as 24 hr preformed biofilm disruption at 12.5 to 25 uM incubated for 24 hrs by XTT assay; assay type: functional, organism-based
[22] = tested on: Staphylococcus aureus; assay: Antibiofilm activity against Staphylococcus aureus JE2 assessed as 24 hr preformed biofilm disruption at 3.1 to 25 uM incubated for 24 hrs by XTT assay; assay type: functional, organism-based
[23] = tested on: Staphylococcus aureus; assay: Antibiofilm activity against Staphylococcus aureus clinical isolate USA200 assessed as 24 hr preformed biofilm disruption at 12.5 to 25 uM incubated for 24 hrs by XTT assay; assay type: functional, organism-based
[24] = tested on: Staphylococcus aureus; assay: Antibiofilm activity against Staphylococcus aureus JE2 assessed as inhibition of bacterial attachment at 3.1 to 25 uM incubated for 24 hrs by XTT/PMS assay; assay type: functional, organism-based
[25] = tested on: Staphylococcus aureus; assay: Antibiofilm activity against Staphylococcus aureus harboring […] mutant assessed as inhibition of bacterial attachment at 3.1 to 25 uM incubated for 24 hrs by XTT/PMS assay; assay type: functional, organism-based
[26] = tested on: Staphylococcus aureus; assay: Antibiofilm activity against Staphylococcus aureus clinical isolate USA300 assessed as 24 hr preformed biofilm disruption at 12.5 to 25 uM incubated for 24 hrs by XTT assay; assay type: functional, organism-based
[27] = tested on: Staphylococcus aureus; assay: Antibiofilm activity against Staphylococcus aureus harboring fnbA mutant assessed as inhibition of bacterial attachment at 3.1 to 25 uM incubated for 24 hrs by XTT/PMS assay; assay type: functional, organism-based
[28] = tested on: Staphylococcus aureus; assay: Antibiofilm activity against Staphylococcus aureus harboring sasC mutant assessed as inhibition of bacterial attachment at 3.1 to 25 uM incubated for 24 hrs by XTT/PMS assay; assay type: functional, organism-based
[29] = tested on: Staphylococcus aureus; assay: Antibiofilm activity against Staphylococcus aureus Newman assessed as 24 hr preformed biofilm disruption at 12.5 to 25 uM incubated for 24 hrs by XTT assay; assay type: functional, organism-based
[30] = tested on: Staphylococcus aureus; assay: Antibiofilm activity against Staphylococcus aureus clinical isolate UAMS-1 assessed as 24 hr preformed biofilm disruption at 12.5 to 25 uM incubated for 24 hrs by XTT assay; assay type: functional, organism-based
[31] = tested on: Staphylococcus aureus; assay: Antibiofilm activity against Staphylococcus aureus harboring sasC mutant assessed as 24 hr preformed biofilm disruption at 3.1 to 25 uM incubated for 24 hrs by XTT assay; assay type: functional, organism-based
[32] = tested on: Staphylococcus aureus; assay: Antibiofilm activity against Staphylococcus aureus harboring […] mutant assessed as 24 hr preformed biofilm disruption at 3.1 to 25 uM incubated for 24 hrs by XTT assay; assay type: functional, organism-based
[33] = tested on: Staphylococcus aureus; assay: Antibiofilm activity against Staphylococcus aureus harboring fnbA mutant assessed as 24 hr preformed biofilm disruption at 3.1 to 25 uM incubated for 24 hrs by XTT assay; assay type: functional, organism-based
[34] = tested on: Staphylococcus aureus; assay: Inhibition of biofilm formation in Staphylococcus aureus clinical isolate USA300 at 6.2 to 25 uM incubated for 24 hrs by XTT/PMS assay; assay type: functional, organism-based
[35] = tested on: Staphylococcus aureus; assay: Inhibition of biofilm formation in Staphylococcus aureus clinical isolate USA300 at 3.1 uM incubated for 24 hrs by XTT/PMS assay relative to control; assay type: functional; settings: isolate USA300, 24 h
[36] = tested on: Staphylococcus aureus; assay: Antibiofilm activity against Staphylococcus aureus clinical isolate USA300 assessed as inhibition of bacterial attachment at 3.1 to 25 uM incubated for 1 hr by XTT/PMS assay; assay type: functional, organism-based

| SMILES | Activity [1] | Activity [2] | MIC [3] | Activity [4] | Activity [5] | inhibition [6] | Activity [7] | MIC [8] | MIC [9] | Activity [10] | HC50 at 1 h [11] | MIC [12] | MIC [13] | Activity [14] | Activity [15] | Activity [16] | inhibition [17] | Activity [18] | MIC [19] | other results |
| --- | --- | --- | --- | --- | --- | --- | --- | --- | --- | --- | --- | --- | --- | --- | --- | --- | --- | --- | --- | --- |
| CC[C@H](C)[C@H](NC(=O)[C@H](CCCNC(=N)N)NC(=O)[C@H](CCC(N)=O)NC(=O)[C@@H](NC(=O)[C@@H](NC(=O)[C@H](CCCNC(=N)N)NC(=O)[C@H](CCCCN)NC(=O)[C@H](Cc1ccccc1)NC(=O)CN)[C@@H](C)CC)C(C)C)C(=O)N[C@@H](CCCCN)C(=O)N[C@@H](CC(=O)O)C(=O)N[C@@H](Cc1ccccc1)C(=O)N[C@@H](CC(C)C)C(=O)N[C@@H](CCCNC(=N)N)C(=O)N[C@@H](CC(N)=O)C(=O)N[C@@H](CC(C)C)C(=O)N[C@H](C(=O)O)C(C)C (H-GFKRIVQRIKDFLRNLV-OH) | Active | inactive | 3.1 µM (≈ 6.52 µg/mL) | Active | Active | Active | Active | 1.56 µM (≈ 3.28 µg/mL) | 1.56 µM (≈ 3.28 µg/mL) | Active | 120 µM | 1.56 µM (≈ 3.28 µg/mL) | 1.56 µM (≈ 3.28 µg/mL) | Non-toxic | Active | Active | Active | Active | 1.56 µM (≈ 3.28 µg/mL) |  |
| CC(C)C[C@H](NC(=O)[C@H](Cc1ccc(-c2ccccc2)cc1)NC(=O)[C@H](CC(=O)O)NC(=O)[C@H](CCCCN)NC(=O)[C@H](CC(C)C)NC(=O)[C@H](CCCNC(=N)N)NC(=O)[C@H](CCC(N)=O)NC(=O)[C@@H](NC(=O)[C@H](CC(C)C)NC(=O)[C@H](CCCNC(=N)N)NC(=O)[C@H](CCCCN)NC(=O)[C@H](Cc1ccc(-c2ccccc2)cc1)NC(=O)CN)C(C)C)C(=O)N[C@@H](CCCNC(=N)N)C(=O)N[C@@H](CC(N)=O)C(=O)N[C@@H](CC(C)C)C(=O)N[C@H](C(N)=O)C(C)C (H-G[Bip]KRLVQRLKD[Bip]LRNLV-NH2) |  |  | 3.1 µM (≈ 6.99 µg/mL) |  | Active | Active |  | 3.1 µM (≈ 6.99 µg/mL) | 3.1 µM (≈ 6.99 µg/mL) | Active | 120 µM | 3.1 µM (≈ 6.99 µg/mL) | 3.1 µM (≈ 6.99 µg/mL) | Non-toxic | Active |  | Active |  | 3.1 µM (≈ 6.99 µg/mL) | Activity [20]: Active; Activity [21]: Active; Activity [22]: Active; Activity [23]: Active; inhibition [24]: Active; inhibition [25]: Active; Activity [26]: Active; inhibition [27]: Active; inhibition [28]: Active; Activity [29]: Active; Activity [30]: Active; Activity [31]: Active; Activity [32]: Active; Activity [33]: Active |
| CC[C@H](C)[C@H](NC(=O)[C@H](CCCNC(=N)N)NC(=O)[C@H](CCC(N)=O)NC(=O)[C@@H](NC(=O)[C@@H](NC(=O)[C@@H](N)CCCNC(=N)N)[C@@H](C)CC)C(C)C)C(=O)N[C@@H](CCCCN)C(=O)N[C@@H](CC(=O)O)C(=O)N[C@@H](Cc1ccccc1)C(=O)N[C@@H](CC(C)C)C(=O)O (H-RIVQRIKDFL-OH) | inactive | inactive | > 50 µM | inactive |  | inactive | inactive | > 50 µM | > 50 µM |  |  | > 50 µM | > 50 µM |  |  | inactive | Active | inactive | > 50 µM |  |
| CC[C@H](C)[C@H](NC(=O)[C@H](CCCCN)NC(=O)[C@H](CCC(=O)O)NC(=O)[C@H](CCCCN)NC(=O)[C@H](CO)NC(=O)[C@H](CCCCN)NC(=O)[C@H](CCCNC(=N)N)NC(=O)[C@H](Cc1ccccc1)NC(=O)[C@H](Cc1ccccc1)NC(=O)[C@H](CC(=O)O)NC(=O)CNC(=O)[C@H](CC(C)C)NC(=O)[C@@H](N)CC(C)C)C(=O)NCC(=O)N[C@@H](CCCCN)C(=O)N[C@@H](CCC(=O)O)C(=O)N[C@@H](Cc1ccccc1)C(=O)N[C@@H](CCCCN)C(=O)N[C@@H](CCCNC(=N)N)C(=O)N[C@H](C(=O)N[C@H](C(=O)N[C@@H](CCC(N)=O)C(=O)N[C@@H](CCCNC(=N)N)C(=O)N[C@H](C(=O)N[C@@H](CCCCN)C(=O)N[C@@H](CC(=O)O)C(=O)N[C@@H](Cc1ccccc1)C(=O)N[C@@H](CC(C)C)C(=O)N[C@@H](CCCNC(=N)N)C(=O)N[C@@H](CC(N)=O)C(=O)N[C@@H](CC(C)C)C(=O)N[C@H](C(=O)N1CCC[C@H]1C(=O)N[C@@H](CCCNC(=N)N)C(=O)N[C@H](C(=O)N[C@@H](CCC(=O)O)C(=O)N[C@@H](CO)C(=O)O)[C@@H](C)O)C(C)C)[C@@H](C)CC)C(C)C)[C@@H](C)CC [CATHELICIDIN] | inactive | inactive | > 50 µM | inactive |  |  | inactive | 6.25 µM (≈ 28.1 µg/mL) | 12.5 µM (≈ 56.2 µg/mL) |  |  | > 50 µM | > 50 µM |  |  | inactive |  | inactive | > 50 µM | inhibition [34]: inactive; inhibition at 3.1 µM [35]: 50%; inhibition [36]: inactive |
